Source: US20240182859A1, “MEDIUM COMPOSITION FOR CULTURING MUSCLE STEM CELL COMPRISING CURCUMIN LONGA, GLYSIN, OR INSULIN FOR PROLIFERATION OF MUSCLE STEM CELL” (HYUPSUNG UNIVERSITY INDUSTRY-ACADEMIC COOPERATION FOUNDATION, priority 2021, published 2024)

Key:
bovine muscle stem cells = assay: Proliferation of bovine muscle stem cells in supplemented DMEM culture medium; type: cell-based
Procedure: (§1) In detail, first, bovine rump meat was treated with trypsin, and then primary-cultured to obtain bovine muscle stem cells.
In detail, first, bovine rump meat was treated with trypsin, and then primary-cultured to obtain bovine muscle stem cells. […] As a control, a DMEM basal medium supplemented with 5% FBS was used.
In detail, first, bovine rump meat was treated with trypsin, and then primary-cultured to obtain bovine muscle stem cells. Afterwards, the muscle stem cells were cultured in the DMEM basal medium supplemented with 5% FBS and 10 μM of insulin, and the proliferation of the muscle stem cells was measured. As a control, a DMEM basal medium supplemented with 5% FBS was used.

Oct4 = assay: qPCR expression level of Oct4 (muscle stem cell marker) in cultured muscle stem cells; type: cell-based, bovine
Procedure: (§2) In detail, first, bovine rump meat was treated with trypsin, and then primary-cultured to obtain bovine muscle stem cells. Afterwards, a culture medium supplemented with curcumin and bFGF was prepared by varying the concentration of curcumin (0.1 μm, 1 μm, 5 μm, 8 μm, and 10 8 μm, respectively) in a DMEM basal medium supplemented with 5% FBS and 8 ng/ml of bFGF, and the muscle stem cells were cultured through passage culture twice.
(§3) In detail, first, bovine rump meat was treated with trypsin, and then primary-cultured to obtain bovine muscle stem cells. Afterwards, a culture medium supplemented with curcumin was prepared by varying the concentration of curcumin (0.1 μm, 1 μm, 5 μm, 8 μm, and 10 μm, respectively) in a DMEM basal medium supplemented with 5% FBS, and the muscle stem cells were cultured through passage culture twice.
as §1
(§4) First, bovine rump meat was treated with trypsin, and then primary-cultured to obtain bovine muscle stem cells.
(§5) In detail, first, bovine rump meat was treated with trypsin, and then primary-cultured to obtain bovine muscle stem cells. Afterwards, a culture medium supplemented with insulin and bFGF was prepared by varying the concentration of insulin (0.1 μm, 1 μm, 5 μm, 8 μm, and 10 8 μm, respectively) in a DMEM basal medium supplemented with 5% FBS and 8 ng/ml of bFGF, and the muscle stem cells were cultured through passage culture twice.
(§6) In detail, first, bovine rump meat was treated with trypsin, and then primary-cultured to obtain bovine muscle stem cells. Afterwards, a culture medium supplemented with insulin was prepared by varying the concentration of insulin (0.1 μm, 1 μm, 5 μm, 8 μm, and 10 μm, respectively) in a DMEM basal medium supplemented with 5% FBS, and the muscle stem cells were cultured through passage culture twice.

Nanog = assay: qPCR expression level of Nanog (muscle stem cell marker) in cultured muscle stem cells; type: cell-based, bovine
Procedure: as §2, §3, §1, §4, §5, §6

Pax7 = assay: qPCR expression level of Pax7 (myoblast marker) in cultured muscle stem cells; type: cell-based, bovine; details: for expression of Pax7, concentration dependence: concentration series
Procedure: as §2, §3, §1, §4, §5, §6

[1] = bFGF-free medium with 5% FBS, overall statement
[2] = insulin 10 μm or more, with 8 ng/ml bFGF
[3] = medium with 5% FBS + 8 ng/ml bFGF, overall statement, passage culture twice
[4] = medium with 5% FBS + 8 ng/ml bFGF
[5] = glycine 1 mM to 50 mM, bFGF-free

Molecule: insulin
- cell proliferation rate increase compared to basal medium (bovine muscle stem cells; 10 μm insulin, DMEM + 5% FBS + 8 ng/ml bFGF, cultured for 29 days): ≥ 6 times
- cell proliferation rate increase compared to basal medium (bovine muscle stem cells; 10 μm insulin, DMEM + 5% FBS, bFGF-free, cultured for 41 days): ≥ 13 times
- expression of Oct4 (Oct4; [1]): increased
- expression of Oct4 (Oct4; [2]): significantly decreased
- expression of Oct4 (Oct4; [3]): increased
- expression of Nanog (Nanog; [1]): maintained
- expression of Nanog (Nanog; [2]): significantly decreased
- expression of Nanog (Nanog; insulin 10 μm, bFGF-free): significantly decreased
- expression of Nanog (Nanog; [3]): increased
- expression of Pax7, concentration dependence (Pax7; bFGF-free medium with 5% FBS): increased in proportion to the concentration of insulin
- expression of Pax7, concentration dependence (Pax7; [4]): increased in proportion to the concentration of insulin

Molecule: NCC(=O)O [glycine]
- cell proliferation rate increase compared to basal medium (bovine muscle stem cells; 100 mM glycine, DMEM + 5% FBS + 8 ng/ml bFGF, cultured for 29 days): ≥ 1.5 times
- cell proliferation rate increase compared to basal medium (bovine muscle stem cells; 100 mM glycine, DMEM + 5% FBS, bFGF-free, cultured for 41 days): ≥ 4.1 times
- expression of Oct4 vs glycine-free DMSO control (Oct4; [5]): increased by about twice
- expression of Oct4 increase vs glycine-free DMSO control (Oct4; glycine 1 mM to 50 mM, with 8 ng/ml bFGF): about 2.3 times
- expression of Oct4 (Oct4; glycine 100 mM or more, with 8 ng/ml bFGF): significantly decreased
- expression of Oct4 (Oct4; glycine 100 mM, bFGF-free): significantly decreased
- expression of Oct4 (Oct4; [3]): increased
- expression of Nanog vs glycine-free DMSO control (Nanog; [5]): increased by about twice
- expression of Nanog vs glycine-free DMSO control (Nanog; glycine 10 mM to 100 mM, with 8 ng/ml bFGF): increased by about twice
- expression of Nanog (Nanog; glycine 100 mM, bFGF-free): significantly decreased
- expression of Nanog (Nanog; glycine 150 mM or more, with 8 ng/ml bFGF): significantly decreased
- expression of Nanog (Nanog; [3]): increased
- expression of Pax7 increase vs insulin-free DMSO control (Pax7; 10 µM, bFGF-free insulin culture medium): ≥ 6 times
- expression of Pax7, concentration dependence (Pax7; bFGF-free medium with 5% FBS): increased in proportion to the concentration of glycine
- expression of Pax7 increase vs glycine-free DMSO control (Pax7; glycine 100 mM or more, bFGF-free): ≥ 3 times
- expression of Pax7, concentration dependence (Pax7; [4]): increased in proportion to the concentration of glycine

Molecule: COc1cc(/C=C/C(=O)CC(=O)/C=C/c2ccc(O)c(OC)c2)ccc1O [curcumin]
- cell proliferation rate increase compared to basal medium (bovine muscle stem cells; 8 μm curcumin, DMEM + 5% FBS + 8 ng/ml bFGF, cultured for 29 days): ≥ 1.5 times
- cell proliferation rate increase compared to basal medium (bovine muscle stem cells; 8 μm curcumin, DMEM + 5% FBS, bFGF-free, cultured for 41 days): ≥ 1.5 times
- expression of Oct4 vs curcumin-free DMSO control (Oct4; curcumin 0.1 μm to 5 μm, with 8 ng/ml bFGF): increased by about twice
- expression of Oct4 vs curcumin-free DMSO control (Oct4; curcumin 1 μm to 5 μm, bFGF-free): increased by at least about twice
- expression of Oct4 (Oct4; curcumin 8 μm or more, with 8 ng/ml bFGF): significantly decreased
- expression of Oct4 (Oct4; curcumin 8 μm, bFGF-free): significantly decreased
- expression of Oct4 (Oct4; [3]): increased
- expression of Nanog (Nanog; [1]): maintained
- expression of Nanog vs curcumin-free DMSO control (Nanog; curcumin 0.1 μm and 1 μm, with 8 ng/ml bFGF): increased by about twice
- expression of Nanog (Nanog; curcumin 5 μm or more, with 8 ng/ml bFGF): significantly decreased
- expression of Nanog (Nanog; curcumin 8 μm, bFGF-free): significantly decreased
- expression of Nanog (Nanog; [3]): increased
- expression of Pax7, concentration dependence (Pax7; bFGF-free medium with 5% FBS): increased in proportion to the concentration of curcumin
- expression of Pax7 (Pax7; curcumin 8 μm, bFGF-free): significantly increased
- expression of Pax7, concentration dependence (Pax7; [4]): increased in proportion to the concentration of curcumin
